The assay deals with H1N1 (influenza A/New Caledonia/20/99). As to the kind of experiment: microbe, parasite or virus in culture. The assay is classed as cell-based. The following applies: H1N1, A549, 48 h.

In general, IC50 refers to the concentration that inhibits the measured activity by half.

With `CC1(C)Cc2c(sc(NC(=O)c3ccc(OCC4COC4)cc3)c2C(=O)O)C(C)(C)C1` [#167, 5,5,7,7-Tetramethyl-2-[[4-(oxetan-3-ylmethoxy)benzoyl]amino]-4,6-dihydrobenzothiophene-3-carboxylic acid], 108 nM corresponded to half-maximal inhibition (IC50). That is a sub-micromolar value.
For the compound `CC1CC(C)(C)c2sc(NC(=O)c3ccccc3)c(C(=O)O)c21` (stereo not drawn) [Compound #43, 2-Benzamido-4,6,6-trimethyl-4,5-dihydrocyclopenta[b]thiophene-3-carboxylic acid], the IC50 was 280 nM.
On to `COCCn1ccc(C(=O)Nc2sc3c(c2C(=O)O)CC(C)(C)CC3)n1` [#226, 2-[[1-(2-Methoxyethyl)pyrazole-3-carbonyl]amino]-5,5-dimethyl-6,7-dihydro-4H-benzothiophene-3-carboxylic acid], for which the IC50 came to 820 nM. This IC50 lies about 2.9-fold higher than the previous one.
With `CC1(C)CCc2sc(NC(=O)c3ccc(NC4CCOCC4)cc3)c(C(=O)O)c2C1` [#161, 5,5-Dimethyl-2-[[4-(tetrahydropyran-4-ylamino)benzoyl]amino]-6,7-dihydro-4H-benzothiophene-3-carboxylic acid], the IC50 was determined as 15 nM.
`CC1(C)CCc2sc(NC(=O)c3ccc(N4CCOCC4)nc3)c(C(=O)O)c2C1` [Compound #65, 5,5-Dimethyl-2-[(6-morpholinopyridine-3-carbonyl)amino]-6,7-dihydro-4H-benzothiophene-3-carboxylic acid] came in with an IC50 of 200 nM.
As for `CC1(C)CCc2sc(NC(=O)c3ccc(N4CCC(O)CC4)cc3)c(C(=O)O)c21` [Compound #78, 2-[[4-(4-Hydroxy-1-piperidyl)benzoyl]amino]-4,4-dimethyl-5,6-dihydrocyclopenta[b]thiophene-3-carboxylic acid], inhibition was half-maximal at 290 nM (IC50).
The compound `Cn1cc(C(=O)Nc2sc3c(c2C(=O)O)CCC(C)(C)C3)cn1` [#212, 6,6-Dimethyl-2-[(1-methylpyrazole-4-carbonyl)amino]-5,7-dihydro-4H-benzothiophene-3-carboxylic acid] had an IC50 of 900 nM.
`CC1(C)CCc2sc(NC(=O)c3ccc(N4CCOCC4)nn3)c(C(=O)O)c2C1` [#227, 5,5-Dimethyl-2-[(6-morpholinopyridazine-3-carbonyl)amino]-6,7-dihydro-4H-benzothiophene-3-carboxylic acid] showed an IC50 of 1390 nM.
`CC1(C)Cc2c(sc(NC(=O)c3ccc(OCC4CCOCC4)cc3)c2C(=O)O)C(C)(C)C1` [#162, 5,5,7,7-Tetramethyl-2-[[4-(tetrahydropyran-4-ylmethoxy)benzoyl]amino]-4,6-dihydrobenzothiophene-3-carboxylic acid]: inhibition was half-maximal at 39 nM (IC50).
The compound `COCCNc1ccc(C(=O)Nc2sc3c(c2C(=O)O)C(C)(C)CC3)cc1` [Compound #64, 2-[[4-(2-Methoxyethylamino)benzoyl]amino]-4,4-dimethyl-5,6-dihydrocyclopenta[b]thiophene-3-carboxylicacid] returned an IC50 of 90 nM.
As to `COC1CN(c2ccc(C(=O)Nc3sc4c(c3C(=O)O)CC(C)(C)CC4)cc2)C1` [#163, 2-[[4-(3-Methoxyazetidin-1-yl)benzoyl]amino]-5,5-dimethyl-6,7-dihydro-4H-benzothiophene-3-carboxylic acid], the IC50 amounted to 18 nM.
`CC1CC(C)(C)Cc2sc(NC(=O)c3ccc(NCC4CCOCC4)cc3)c(C(=O)O)c21` (stereo not drawn) [Compound #157, 4,6,6-Trimethyl-2-[[4-(tetrahydropyran-4-ylmethylamino)benzoyl]amino]-5,7-dihydro-4H-benzothiophene-3-carboxylic acid] gave an IC50 of 5 nM. This IC50 is about 3.6-fold lower than that of the compound before.

Values taken from US11492347B2 (ENYO PHARMA, priority 2018, dated 2022).
